# Assay results published in publication PMC9468151, “Identification of a binding site on soluble RANKL that can be targeted to inhibit soluble RANK-RANKL interactions and treat osteoporosis” (Nature Communications, 2022).
# Where “and” joins values, the source holds several entries; their conditions need not be identical. Equal entries are not always repeated. Entries after “also recorded” stand apart in the source; their conditions may differ.
# Key:
# [1] = system: sRANKL induced osteoclast differentiation; experiment: In vitro anti-osteoclastogenesis activity determination (TRAP staining); format: cell-based, mouse; details: BMMs, M-CSF + 100 ng/mL sRANKL, 5 days, TRAP staining
# Protocol: Mouse osteoclasts were cultured according to the previously reported protocols. BMMs were plated in 96-well plates at a density of 6 × 10^3 cells/well with complete medium containing 10 ng/mL M-CSF. The following day, cells were then stimulated with 100 ng/mL sRANKL in the presence or absence of compounds with different concentrations every 2 days until osteoclasts formed. In order to calculate IC50, we set 9 concentrations for each compound and untreated and non-sRANKL unstimulating group as controls, each with triplicated repeated wells. After 5 days, cells were fixed with 4% paraformaldehyde and then applied TRAP-staining to identify osteoclasts by using the TRAP-staining kit. Osteoclasts number (OC No.) in each well was counted and the percentage of inhibition ratio was calculated as follows:1 OCinhibitoryratio%=100−OCNo.treated−OCNo.unstimulating/OCNo.untreated−OCNo.unstimulating×100%
# The dosages and their correspondent osteoclastogenesis inhibitory activity curve and IC50 value were conducted by using Nonlinear regression (curve fit) analytic procedure in GraphPad Prism 8. Photographs of individual wells were taken using Leica microscope.
# T lymphocyte = T lymphocyte cell proliferation assay (CFSE, CD4+/CD8+ flow cytometry); format: cell-based, human
# Protocol: T lymphocyte cell proliferation assay was performed according to a reported method[58] with some modification. Briefly, 5 × 10^6 cells /mL cells were stained 2.5 μM CFSE (Tonbo Biosciences) and incubated at 37 °C for 12 min. Then washed and discarded the supernatant and adjusted the CFSE stained cell to 1.75 × 10^6 cells /mL. Cells were diluted in 1640 completed medium containing 5 μg/mL anti-CD3 antibody (Tonbo Biosciences) to 3 × 10^5 cells/mL and seed in a 96-well plate or 24-well plate that pre-packaged 0.4 μg/well anti-CD28 antibody and 1.6 μg anti-CD28 antibody (24-well) (Tonbo Biosciences). Cells were then cultured for 3 days, 9 days or 12 days. Subsequently, the proportion of CD4^+ and CD8^+ cells was determined by flow cytometry (Beckman Coulter, FC500) according to manufacturer’s instruction of PE-Cyanine7 anti-Human CD8a and PE anti-Human CD4 antibodies (Tonbo Biosciences). Data analyzing was performed by using CXP software (Beckman Coulter, Supplementary Fig. 8).
# [2] = Cancer donor 1, 3 day, Denosumab 2
# [3] = Cancer donor 1, 3 day, Denosumab 10
# [4] = Cancer donor 1, 3 day, Denosumab 50
# [5] = Cancer donor 1, 3 day, Denosumab 100
# [6] = Healthy donor 1, 3 day, Denosumab 2
# [7] = Healthy donor 1, 3 day, Denosumab 10
# [8] = Healthy donor 1, 3 day, Denosumab 50
# [9] = Healthy donor 1, 3 day, Denosumab 100
# [10] = Healthy donor 1, 12 day, Denosumab 2
# [11] = Healthy donor 1, 12 day, Denosumab 10
# [12] = Healthy donor 1, 12 day, Denosumab 50
# [13] = Healthy donor 1, 12 day, Denosumab 100
# [14] = Healthy donor 2, 9 day, Denosumab 2
# [15] = Healthy donor 2, 9 day, Denosumab 10
# [16] = Healthy donor 2, 9 day, Denosumab 50
# [17] = Healthy donor 2, 9 day, Denosumab 100
# [18] = cancer patient donors 1, 3 day, Denosumab conc. 2
# [19] = cancer patient donors 1, 3 day, Denosumab conc. 10
# [20] = cancer patient donors 1, 3 day, Denosumab conc. 50
# [21] = cancer patient donors 1, 3 day, Denosumab conc. 100
# [22] = healthy donors 2, 9 day, Denosumab conc. 2
# [23] = healthy donors 2, 9 day, Denosumab conc. 10
# [24] = healthy donors 2, 9 day, Denosumab conc. 50
# [25] = healthy donors 2, 9 day, Denosumab conc. 100
molecule,measurement,setting,value
CCOC(=O)c1sc(NC(=O)C(=NNc2cc(C(=O)O)ccc2C(=O)O)C(C)=O)nc1C [S3-04],OC IC50 (anti-osteoclastogenesis activity),[1],Inactive; also recorded: lose osetoclastogenesis inhibitory activities
Denosumab: human monoclonal antibody targeting RANKL [reference compound],CD8+ cells in total cells (%),T lymphocyte; [2],12.95% and 18.88% and 19.88%
same,CD8+cells in CFSE-cells (%),T lymphocyte; [2],47.83% and 52.36% and 55.86%
same,CFSE- cells in total cells (%),T lymphocyte; [2],7.68% and 12.7% and 13.49%
same,CD8+ cells in total cells (%),T lymphocyte; [3],19.52% and 20.76% and 18.73% and 17.85%
same,CD8+cells in CFSE-cells (%),T lymphocyte; [3],58.3% and 60.56% and 50.89% and 60.05%
same,CFSE- cells in total cells (%),T lymphocyte; [3],14.67% and 15.58% and 13.42% and 13.19%
same,CD8+ cells in total cells (%),T lymphocyte; [4],26.97% and 21.55% and 18.02% and 16.53%
same,CD8+cells in CFSE-cells (%),T lymphocyte; [4],60.83% and 60.63% and 65.78% and 55.26%
same,CFSE- cells in total cells (%),T lymphocyte; [4],18.07% and 17.65% and 14.37% and 12.07%
same,CD8+ cells in total cells (%),T lymphocyte; [5],18.07% and 12.62% and 9.75% and 19.7%
same,CD8+cells in CFSE-cells (%),T lymphocyte; [5],58.14% and 64.44% and 57.46% and 66.87%
same,CFSE- cells in total cells (%),T lymphocyte; [5],13.67% and 8.82% and 5.94% and 14.04%
same,CD4+cells in total cells (%),T lymphocyte; [6],69.69% and 70.06% and 70.95% and 70.86%
same,CD8+ cells in total cells (%),T lymphocyte; [6],18.8% and 18.88% and 18.25% and 19.29%
same,CD8+cells in CFSE-cells (%),T lymphocyte; [6],26.34% and 25.38% and 32.57% and 36.89%
same,CFSE- cells in total cells (%),T lymphocyte; [6],26.84% and 28.54% and 29.29% and 24.77%
same,CD4+cells in total cells (%),T lymphocyte; [7],65.55% and 67.08% and 69.8% and 70.72%
same,CD8+ cells in total cells (%),T lymphocyte; [7],12.83% and 18.37% and 19.41% and 19.55%
same,CD8+cells in CFSE-cells (%),T lymphocyte; [7],30.74% and 26.84% and 36.74% and 30.32%
same,CFSE- cells in total cells (%),T lymphocyte; [7],20.59% and 18.28% and 26.59% and 31.48%
same,CD4+cells in total cells (%),T lymphocyte; [8],67.05% and 68.05% and 69.94%
same,CD8+ cells in total cells (%),T lymphocyte; [8],11.73% and 19.23% and 18.46% and 17.76%
same,CD8+cells in CFSE-cells (%),T lymphocyte; [8],24.41% and 28.83% and 32.28% and 24%
same,CFSE- cells in total cells (%),T lymphocyte; [8],15.36% and 19.21% and 18.01% and 22.17%
same,CD4+cells in total cells (%),T lymphocyte; [9],70.71% and 71.03% and 67.42% and 69.45%
same,CD8+ cells in total cells (%),T lymphocyte; [9],18.51% and 19.03% and 18%
same,CD8+cells in CFSE-cells (%),T lymphocyte; [9],34.99% and 31.86% and 30.15% and 27.25%
same,CFSE- cells in total cells (%),T lymphocyte; [9],23.52% and 25.01% and 20.72% and 24.32%
same,CD4+cells in total cells (%),T lymphocyte; [10],26.49% and 25.92% and 26.52% and 28.25%
same,CD8+ cells in total cells (%),T lymphocyte; [10],16.3% and 19.12% and 15.44% and 15.28%
same,CD8+cells in CFSE-cells (%),T lymphocyte; [10],73.19% and 72% and 71.55% and 68.56%
same,CFSE- cells in total cells (%),T lymphocyte; [10],14.97% and 17.18% and 14.07% and 13.53%
same,CD4+cells in total cells (%),T lymphocyte; [11],25.95% and 25.52% and 26.76% and 24.64%
same,CD8+ cells in total cells (%),T lymphocyte; [11],15.64% and 17.84% and 16.84% and 18.91%
same,CD8+cells in CFSE-cells (%),T lymphocyte; [11],74.4% and 67.54% and 67.82% and 72.96%
same,CFSE- cells in total cells (%),T lymphocyte; [11],15.13% and 15.31% and 14.05% and 17.18%
same,CD4+cells in total cells (%),T lymphocyte; [12],24.55% and 27.22% and 26.53% and 28.64%
same,CD8+ cells in total cells (%),T lymphocyte; [12],20.42% and 18.55% and 17.94% and 15.51%
same,CD8+cells in CFSE-cells (%),T lymphocyte; [12],76.93% and 74.3% and 73% and 74.26%
same,CFSE- cells in total cells (%),T lymphocyte; [12],19.56% and 16.94% and 16.16% and 14.84%
same,CD4+cells in total cells (%),T lymphocyte; [13],25.87% and 24.55% and 27.13% and 25.36%
same,CD8+ cells in total cells (%),T lymphocyte; [13],17.35% and 16.6% and 14.41% and 19%
same,CD8+cells in CFSE-cells (%),T lymphocyte; [13],75.89% and 76.07% and 78.18% and 58.5%
same,CFSE- cells in total cells (%),T lymphocyte; [13],16.6% and 18.55% and 14.85% and 14.03%
same,CD8+ cells in total cells (%),T lymphocyte; [14],62.1% and 50.03% and 44.09%
same,CD8+cells in CFSE-cells (%),T lymphocyte; [14],46.7% and 62.97% and 61.41%
same,CFSE- cells in total cells (%),T lymphocyte; [14],29.5% and 51.59% and 42.27%
same,CD8+cells in CFSE-cells (%),T lymphocyte; [15],52.77% and 43.74% and 55.57%
same,CFSE- cells in total cells (%),T lymphocyte; [15],41.17% and 28.01% and 37.92%
same,CD8+ cells in total cells (%),T lymphocyte; [16],20.69% and 38.29% and 38.09%
same,CD8+cells in CFSE-cells (%),T lymphocyte; [16],53.31% and 54.69% and 48.69%
same,CFSE- cells in total cells (%),T lymphocyte; [16],29.61% and 31.67% and 28.7%
same,CD8+ cells in total cells (%),T lymphocyte; [17],58.4% and 50.02% and 56.13%
same,CD8+cells in CFSE-cells (%),T lymphocyte; [17],75.13% and 70.69% and 68.35%
same,CFSE- cells in total cells (%),T lymphocyte; [17],59.44% and 46.67% and 44.15%
same,CD4+cells in total cells (%),T lymphocyte; [18],2.77% and 5.83% and 5.1%
same,CFSE-CD4+cells in CFSE-cells (%),T lymphocyte; [18],6.78% and 7.64% and 7.28%
same,CD4+cells in total cells (%),T lymphocyte; [19],4.94% and 4.86% and 1.84% and 3.11%
same,CFSE-CD4+cells in CFSE-cells (%),T lymphocyte; [19],6.34% and 3.24% and 8% and 8.92%
same,CD4+cells in total cells (%),T lymphocyte; [20],1.87% and 6.24% and 6.17% and 6.5%
same,CFSE-CD4+cells in CFSE-cells (%),T lymphocyte; [20],4% and 0.79% and 1.56% and 4.58%
same,CD4+cells in total cells (%),T lymphocyte; [21],9.55% and 7.15% and 9.97% and 6.77%
same,CFSE-CD4+cells in CFSE-cells (%),T lymphocyte; [21],4% and 0% and 0.9%
same,CD4+CFSE− cell after treatment,"T lymphocyte; cancer patient, Fig. 7c, control 5.32 ± 0.76%",1.33 ± 2.31%
same,total T cells isolated from cancer patient after treatment,"T lymphocyte; cancer patient, Fig. 7c, control 14.51 ± 3.71%",3.88 ± 1.77%
same,CD4+cells in total cells (%),"T lymphocyte; healthy donors 1, 3 day, Denosumab conc. 2",72.37% and 73.3% and 66.26% and 61.44%
same,CD4+cells in total cells (%),"T lymphocyte; healthy donors 1, 3 day, Denosumab conc. 10",65.16% and 71.53% and 62.16% and 68.6%
same,CD4+cells in total cells (%),"T lymphocyte; healthy donors 1, 3 day, Denosumab conc. 50",73.23% and 69.38% and 66.17% and 74.19%
same,CD4+cells in total cells (%),"T lymphocyte; healthy donors 1, 3 day, Denosumab conc. 100",64% and 66.67% and 68.46% and 71.67%
same,CFSE-CD4+cells in CFSE-cells (%),"T lymphocyte; healthy donors 1, 12 day, Denosumab conc. 2",9.68% and 10.89% and 9.04% and 9.57%
same,CFSE-CD4+cells in CFSE-cells (%),"T lymphocyte; healthy donors 1, 12 day, Denosumab conc. 10",10.52% and 10.85% and 8.44% and 10.78%
same,CFSE-CD4+cells in CFSE-cells (%),"T lymphocyte; healthy donors 1, 12 day, Denosumab conc. 50",8.71% and 10.48% and 9.97% and 9.81%
same,CFSE-CD4+cells in CFSE-cells (%),"T lymphocyte; healthy donors 1, 12 day, Denosumab conc. 100",9.75% and 11.53% and 10.58%
same,CD4+cells in total cells (%),T lymphocyte; [22],17% and 17.01% and 14.7%
same,CFSE-CD4+cells in CFSE-cells (%),T lymphocyte; [22],42.1% and 26.91% and 24.13%
same,CD4+cells in total cells (%),T lymphocyte; [23],13.52% and 17.3% and 15.5%
same,CFSE-CD4+cells in CFSE-cells (%),T lymphocyte; [23],24.29% and 47.85% and 28.82%
same,CD4+cells in total cells (%),T lymphocyte; [24],12.4% and 14.63% and 15.19%
same,CFSE-CD4+cells in CFSE-cells (%),T lymphocyte; [24],19.21% and 28.79% and 29.22%
same,CD4+cells in total cells (%),T lymphocyte; [25],14.9% and 10.87% and 12.57%
same,CFSE-CD4+cells in CFSE-cells (%),T lymphocyte; [25],20.36% and 16.35% and 22.15%
same,total CD4+ and CD4+CFSE− T cell,"T lymphocyte; human 2, 9 days, 100 μg/mL",dropped by nearly half
same,lymphocyte proliferation,"T lymphocyte; human lymphocytes, in words",notably inhibits lymphocyte proliferation at high concentration
